# From US11976057B2, “MrgX2 antagonists” (GlaxoSmithKline Intellectual Property Development Limited, priority 2020, dated 2024)
# Biological target: T1, human MRGPRX2 (Homo sapiens, UniProt Q96LB1)
# T1 sequence (Q96LB1 1-330): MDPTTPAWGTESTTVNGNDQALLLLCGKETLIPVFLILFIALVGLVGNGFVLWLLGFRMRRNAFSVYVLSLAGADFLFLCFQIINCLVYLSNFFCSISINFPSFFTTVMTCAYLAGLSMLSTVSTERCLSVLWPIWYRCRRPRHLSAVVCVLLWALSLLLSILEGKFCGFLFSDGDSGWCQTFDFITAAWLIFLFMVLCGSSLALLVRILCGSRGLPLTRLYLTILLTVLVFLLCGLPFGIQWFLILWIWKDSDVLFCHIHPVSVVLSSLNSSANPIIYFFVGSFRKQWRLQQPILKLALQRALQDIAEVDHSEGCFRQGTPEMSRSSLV
# Assay: Ca2+ mobilization assay (FLIPR TETRA): inhibition of Cortistatin-14 mediated MRGPRX2 activation
row,Compound,IC50
1,"CC(C(=O)Nc1ncc(Oc2ccc(F)cn2)cc1F)N1CCC(F)(F)[C@@H](c2ccc(=O)[nH]c2)C1 (stereo partly drawn) [Example 91, 2-((S)-4,4-difluoro-3-(6-oxo-1,6-dihydropyridin-3-yl)piperidin-1-yl)-N-(3-fluoro-5-((5-fluoropyridin-2-yl)oxy)pyridin-2-yl)propanamide]",100 to 3160 nM
2,"CC(C(=O)Nc1ccc(Cc2cccnc2)cn1)N1CCC(F)(F)[C@@H](c2ccc(=O)[nH]c2)C1 (stereo partly drawn) [Example 45, 2-((S)-4,4-difluoro-3-(6-oxo-1,6-dihydropyridin-3-yl)piperidin-1-yl)-N-(5-(pyridin-3-ylmethyl)pyridin-2-yl)propanamide]",3160 to 31600 nM
3,"C[C@@H](C(=O)Nc1ccc(OCC2CC2)cn1)N1CCC(F)(F)[C@@H](c2ccc(=O)[nH]c2)C1 [Example 75, (S)-N-(5-(cyclopropyl-methoxy)pyridin-2-yl)-2-((S)-4,4-difluoro-3-(6-oxo-1,6-dihydropyridin-3-yl)piperidin-1-yl)propanamide]",10 to 100 nM
4,"CC(C(=O)Nc1ccc(Oc2ccc(F)cc2)nn1)N1CCC(F)(F)[C@@H](c2ccc(=O)[nH]c2)C1 (stereo partly drawn) [Example 63, 2-((S)-4,4-difluoro-3-(6-oxo-1,6-dihydropyridin-3-yl)piperidin-1-yl)-N-(6-(4-fluorophenoxy)pyridazin-3-yl)propanamide]",100 to 3160 nM
5,"CC(C(=O)Nc1cc2cnn(CC3CC3)c2cn1)N1CCC(F)(F)[C@@H](c2ccc(=O)[nH]c2)C1 (stereo partly drawn) [Example 40, N-(1-(cyclopropyl-methyl)-1H-pyrazolo[3,4-c]pyridin-5-yl)-2-((S)-4,4-difluoro-3-(6-oxo-1,6-dihydropyridin-3-yl)piperidin-1-yl)propanamide]",100 to 3160 nM
6,"C[C@@H](C(=O)Nc1ccc(F)cn1)N1CCC(F)(F)[C@@H](c2c[nH]c(=O)cn2)C1 [Example 135, (S)-2-((R)-4,4-difluoro-3-(5-oxo-4,5-dihydropyrazin-2-yl)piperidin-1-yl)-N-(5-fluoropyridin-2-yl)propanamide]",10 to 100 nM
7,"CC(C(=O)Nc1ncc(Oc2ccc(F)cc2F)cc1F)N1CCC(F)(F)[C@@H](c2ccc(=O)[nH]c2)C1 (stereo partly drawn) [Example 87, 2-((S)-4,4-difluoro-3-(6-oxo-1,6-dihydropyridin-3-yl)piperidin-1-yl)-N-(5-(2,4-difluorophenoxy)-3-fluoropyridin-2-yl)propanamide]",≤ 10 nM
8,"CC(C(=O)Nc1ccc(OC2CCC2)cn1)N1CCC(F)(F)[C@@H](c2ccc(=O)[nH]c2)C1 (stereo partly drawn) [Example 78, N-(5-cyclobutoxy-pyridin-2-yl)-2-((S)-4,4-difluoro-3-(6-oxo-1,6-dihydropyridin-3-yl)piperidin-1-yl)propanamide]",100 to 3160 nM
9,"C[C@@H](C(=O)Nc1ccc(Oc2c(F)cc(F)cc2F)cn1)N1CCC(F)(F)[C@@H](c2ccc(=O)[nH]c2)C1 [Example 96, (S)-2-((S)-4,4-difluoro-3-(6-oxo-1,6-dihydropyridin-3-yl)piperidin-1-yl)-N-(5-(2,4,6-trifluorophenoxy)pyridin-2-yl)propanamide]",≤ 10 nM
10,"C[C@@H](C(=O)Nc1ccc(OCC2CC2)cn1)N1CCC(F)(F)[C@@H](c2c[nH]c(=O)c(N)n2)C1 [Example 105, (S)-2-((R)-3-(6-amino-5-oxo-4,5-dihydropyrazin-2-y1)-4,4-difluoropiperidin-l-y1)-N-(5-(cyclopropylmethoxy)pyridin-2-yl)propanamide]",10 to 100 nM
11,"C[C@@H](C(=O)Nc1ccc(CC2CCC2)cn1)N1CCC(F)(F)[C@@H](c2ccc(=O)[nH]c2)C1 [Example 84, (S)-N-(5-(cyclobutyl-methyl)pyridin-2-yl)-2-((S)-4,4-difluoro-3-(6-oxo-1,6-dihydropyridin-3-yl)piperidin-1-yl)propanamide]",10 to 100 nM
12,"CC(C(=O)Nc1ccc(Oc2ccccc2C#N)nn1)N1CCC(F)(F)[C@@H](c2ccc(=O)[nH]c2)C1 (stereo partly drawn) [Example 62, N-(6-(2-cyanophenoxy)pyridazin-3-yl)-2-((S)-4,4-difluoro-3-(6-oxo-1,6-dihydropyridin-3-yl)piperidin-1-yl)propanamide]",3160 to 31600 nM
13,"C[C@@H](C(=O)Nc1ccc(Cl)cn1)N1CCC(F)(F)[C@@H](c2c[nH]c(=O)cn2)C1 [Example 136, (S)-N-(5-chloropyridin-2-yl)-2-((R)-4,4-difluoro-3-(5-oxo-4,5-dihydropyrazin-2-yl)piperidin-1-yl)propanamide]",100 to 3160 nM
14,"COc1ccc(NC(=O)C(C)N2CCC(F)(F)[C@@H](c3ccc(=O)[nH]c3)C2)nn1 (stereo partly drawn) [Example 43, 2-((S)-4,4-difluoro-3-(6-oxo-1,6-dihydropyridin-3-yl)piperidin-1-yl)-N-(6-methoxy-pyridazin-3-yl)propanamide]",3160 to 31600 nM
15,"CC(C(=O)Nc1ccc(Oc2cncc(F)c2)cn1)N1CCC(F)(F)[C@@H](c2ccc(=O)[nH]c2)C1 (stereo partly drawn) [Example 67, 2-((S)-4,4-difluoro-3-(6-oxo-1,6-dihydropyridin-3-yl)piperidin-1-yl)-N-(5-((5-fluoropyridin-3-yl)oxy)pyridin-2-yl)propanamide]",10 to 100 nM

# More lines, now with the values ahead:
row,IC50,Compound
1,≤ 10 nM,"C[C@@H](C(=O)Nc1ccc(Oc2ccc(F)cc2F)cn1)N1CCC(F)(F)[C@@H](c2c[nH]c(=O)c([C@H](N)C(F)(F)F)c2)C1 (single isomer, unassigned) [Example 235]"
2,≤ 10 nM,"C[C@@H](C(=O)Nc1ccc(Oc2ccc(F)cc2)cn1)N1CCC(F)(F)[C@@H](c2c[nH]c(=O)c([C@@H](N)C(F)(F)F)c2)C1 (single isomer, unassigned) [Example 234]"
3,100 to 3160 nM,C[C@H]1C[C@@H](c2ccc(=O)[nH]c2)CN([C@@H](C)C(=O)Nc2ccc(Cl)cn2)C1 [Example 172]
4,100 to 3160 nM,C[C@@H](C(=O)Nc1ccc(Cl)cn1)N1CCC[C@@H](c2c[nH]c(=O)c(N)c2)C1 [Example 170]
5,10 to 100 nM,"Cc1cc([C@@H]2CN([C@H](C)C(=O)Nc3ccc(Oc4ccc(F)cc4)cn3)CCC2(F)F)cc[n+]1[O-] (racemic) [Example 218, 4-((R)-4,4-difluoro-1-((R)-1-((5-(4-fluorophenoxy)pyridin-2-yl)amino)-1-oxopropan-2-yl)piperidin-3-yl)-2-methylpyridine 1-oxide and 4-((S)-4,4-difluoro-1-((S)-1-((5-(4-fluorophenoxy)pyridin-2-yl)amino)-1-oxopropan-2-yl)piperidin-3-yl)-2-methylpyridine 1-oxide]"
6,3160 to 31600 nM,"C[C@@H](C(=O)Nc1ccc(Cl)cn1)N1CCC[C@@H](c2cc[n+]([O-])cc2)C1 (single isomer, unassigned) [Example 180]"
7,≤ 10 nM,COc1cc(F)ccc1Oc1ccc(NC(=O)[C@H](C)N2CCC(F)(F)[C@@H](c3ccc(=O)[nH]c3)C2)nc1 [Example 269]
8,100 to 3160 nM,"CC(C(=O)Nc1ccc(F)cn1)N1CCC(F)(F)C(c2c[nH]c(=O)c(CS(C)(=O)=O)c2)C1 (stereo not shown) [Example 213, 2-(4,4-difluoro-3-(5-((methylsulfonyl)methyl)-6-oxo-1,6-dihydropyridin-3-yl)piperidin-1-yl)-N-(5-fluoropyridin-2-yl)propanamide]"
9,10 to 100 nM,"C[C@@H](C(=O)Nc1ccc(OCC2CC2)nn1)N1CCC(F)(F)C(c2c[nH]c(=O)c(C#N)c2)C1 (stereo partly drawn) [Example 223, (2S)-2-(3-(5-cyano-6-oxo-1,6-dihydropyridin-3-yl)-4,4-difluoropiperidin-1-yl)-N-(6-(cyclopropylmethoxy)pyridazin-3-yl)propanamide]"
10,10 to 100 nM,"CC(C(=O)Nc1ccc(F)cn1)N1CCC(F)(F)C(c2ccc(=O)n(Cc3ncco3)c2)C1 (stereo not shown) [Example 198, 2-(4,4-difluoro-3-(1-(oxazol-2-ylmethyl)-6-oxo-1,6-dihydropyridin-3-yl)piperidin-1-yl)-N-(5-fluoropyridin-2-yl)propanamide]"
11,100 to 3160 nM,"CC(C)n1cc(C2CN([C@@H](C)C(=O)Nc3ccc(F)cn3)CCC2(F)F)ccc1=O (stereo partly drawn) [Example 194, (2S)-2-(4,4-difluoro-3-(1-isopropyl-6-oxo-1,6-dihydropyridin-3-yl)piperidin-1-yl)-N-(5-fluoropyridin-2-yl)propanamide]"
12,100 to 3160 nM,"CC(C(=O)Nc1ccc(OCC2CC2)cn1)N1CC(c2ccc(=O)[nH]c2)C(F)(F)C1 (stereo not shown) [Example 164, N-(5-(cyclopropylmethoxy)pyridin-2-yl)-2-(3,3-difluoro-4-(6-oxo-1,6-dihydropyridin-3-yl)pyrrolidin-1-yl)propanamide]"
13,≤ 10 nM,"C[C@@H](C(=O)Nc1ccc(Oc2ccc(F)cc2)cn1)N1CCC(F)(F)[C@@H](c2c[nH]c(=O)c(C(N)=O)c2)C1 [Example 252, 5-((S)-4,4-difluoro-1-((S)-1-((5-(4-fluorophenoxy)pyridin-2-yl)amino)-1-oxopropan-2-yl)piperidin-3-yl)-2-oxo-1,2-dihydropyridine-3-carboxamide]"
14,≤ 10 nM,"C[C@@H](C(=O)Nc1cnc(Oc2ccc(F)cc2F)cn1)N1CCC(F)(F)[C@@H](c2c[nH]c(=O)c(CN3CCOCC3)c2)C1 [Example 229, (S)-2-((S)-4,4-difluoro-3-(5-(morpholinomethyl)-6-oxo-1,6-dihydropyridin-3-yl)piperidin-1-yl)-N-(5-(2,4-difluorophenoxy)pyrazin-2-yl)propanamide]"
15,≤ 10 nM,"C[C@@H](C(=O)Nc1ccc(Oc2ncc(F)cc2F)cn1)[C@H]1CCC(F)(F)[C@@H](c2cc[n+]([O-])cc2)C1 [Example 293, 4-((1R,5S)-5-((R)-1-((5-((3,5-difluoropyridin-2-yl)oxy)pyridin-2-yl)amino)-1-oxopropan-2-yl)-2,2-difluorocyclohexyl)pyridine 1-oxide]"
16,10 to 100 nM,"C[C@@H](C(=O)Nc1cnc(Oc2ccc(F)cc2)cn1)N1CCC(F)(F)[C@@H](c2c[nH]c(=O)c(CS(C)(=O)=O)c2)C1 [Example 215, (S)-2-((S)-4,4-difluoro-3-(5-((methylsulfonyl)methyl)-6-oxo-1,6-dihydropyridin-3-yl)piperidin-1-yl)-N-(5-(4-fluorophenoxy)pyrazin-2-yl)propanamide]"
